{
  "source": "patent US20040115160A1",
  "about": "“Quaternary ammonium esters for disinfection and preservation” (priority 2002, published 2004)",
  "assay_type_in_all_cases": "cell-based",
  "key": {"[1]": {"test_system": "Acanthamoeba polyphaga strain Ros cysts", "test": "Acanthamoeba contact lens disinfectant challenge test assay", "conditions": "25 ppm", "experimental": "Acanthamoeba polyphaga strain Ros were used in this study. Trophozoites were maintained at 30° C. in an axenic broth medium composed of 20.0 g Biosate™ (Becton Dickinson, United Kingdom), 5.0 g glucose, 0.3 g KH2PO4, 10 μg vitamin B12 and 15.0 mg L-methionine per litre of deionized water. The pH was adjusted to 6.5-6.6 with 1 M NaOH before autoclaving at 121° C. for 12 minutes. Penicillin and streptomycin were added to a final concentration of 150 μ/ml before use.\nCysts were prepared from trophozoite cultures using the axenic medium supplemented with 50 mM MgCl2. The encystment medium was inoculated with approximately 2×10^5 /ml trophoxoites for culture at 30° C. in a shaking incubator (100 rpm) for 7 days. Cells were enumerated using haemocytometer counting.\nThe challenge test assay protocol, as described by R. Hughes and S. Kilvington, Comparison of Hydrogen Peroxide Contact Lens Disinfection Systems and Solutions Against Acanthamoeba Polyphaga, Antimicrob. Agents Chemother. 45: 2038-2043, (2001), is set forth in detail below. The number of surviving organisms was calculated as described by L. J. Reed and H. Muench, A Simple Method for Estimating Fifty Percent Endpoints, Am. J. Hyg., 27: 493-497, (1938). Statistical analysis of the data was by One Way Analysis Of Variance (ANOVA).\n1. Fifty ml polypropylene centrifuge tubes were aged overnight with 15 ml of disinfectant solution, i.e., ReNue™ 02 (Bausch & Lomb, Rochester, N.Y.). The tubes were then drained, the disinfectant solution discarded, and refilled with 10 ml of fresh disinfectant solution for testing.\n2. To a flat-bottomed, 96 well microtitre plate having 8 columns labelled “A” through “H”, 180 μl of neutralizer, i.e., 0.1 percent Tween™ 80 (Baker, Inc., Phillipsburg, N.J.) in one-quarter strength Ringer's solution for biguanide based disinfectants, was added to the outer wells of columns A and H. 180 μl of one-quarter strength Ringer's solution was then added to the remaining inner wells of columns B through G.\n3. Amoebae were adjusted to 5×10^6 /ml in one-quarter strength Ringer's solution and 100 μl (5×10^5) was added to 10 ml of disinfectant (5×10^4 /ml) or saline control.\n4. At time intervals of 0, 1, 2, 3, 4, 6 and 24 hours:\ni. vortexed tubes 5 seconds;\nii. in quadruplet, removed 20 μl (1000 cells) and added to neutralizer wells for the given time-point (i.e., column A, rows 9-12) and made serial 10-fold dilutions across the microtitre plate (i.e., to column D, rows 9-12); and\niii. repeated for each time point.\n5. One drop of live E. coli from 3 ml pastette (25 μl of approximately 5×10^7 bacteria/ml) was then added to each well.\n6. The plate was then incubated at 32° C. for up to 7 days.\n7. The plate was inspected daily for 7 days for the presence of amoebal growth, either trophozoite replication or excystment and trophozoite replication, in the wells.\n8. The number of surviving organisms was then estimated at each time interval by Reed and Muench computation and set forth below in Table 3."}, "[2]": {"test_system": "Staphylococcus aureus (ATCC 6538)", "test": "Stand-alone biocidal test without organic soil", "conditions": "25 ppm in BBS, without organic soil", "experimental": "(§1) A test was conducted to study the microbiocidal efficacy of a solution containing a quaternary ammonium ester of the present invention employing borate buffered saline (BBS). The antimicrobial efficacy of each of the various compositions for the chemical disinfection of contact lenses was evaluated. Microbial challenge inoculums were prepared using Pseudomonas aeruginosa (ATCC 9027), Staphylococcus aureus (ATCC 6538), Serratia marcescens (ATCC 13880), Candida albicans (ATCC 10231) and Fusarium solani (ATCC 36031). The test organisms were cultured on appropriate agar and the cultures were harvested using sterile DPBST (Dulbecco's Phosphate Buffered Saline plus 0.05 percent weight/volume polysorbate 80) or a suitable diluent and transferred to a suitable vessel. Spore suspensions were filtered through sterile glass wool to remove hyphal fragments. Serratia marcescens, as appropriate, was filtered through a 1.2 mμ filter to clarify the suspension. After harvesting, the suspension was centrifuged at no more than 5000×g for a maximum of 30 minutes at 20 to 25° C. The supernatant was poured off and resuspended in DPBST or other suitable diluent. The suspension was centrifuged a second time, and resuspended in DPBST or other suitable diluent. All challenge bacterial and fungal cell suspensions were adjusted with DPBST or other suitable diluent to 1×10^7 to 1×10^8 cfu/ml. The appropriate cell concentration may be estimated by measuring the turbidity of the suspension, for example, using a spectrophotometer at a preselected wavelength, for example 490 nm. One tube was prepared containing a minimum of 10 ml of test solution per challenge organism. Each tube of the solution to be tested was inoculated with a suspension of the test organism sufficient to provide a final count of 1×10^5 to 1×10^6 cfu/ml, the volume of the inoculum not exceeding 1 percent of the sample volume. Dispersion of the inoculum was ensured by vortexing the sample for at least 15 seconds. The inoculated product was stored at 10 to 25° C. Aliquots in the amount of 1.0 ml were taken of the inoculated product for determination of viable counts after certain time periods of disinfection. The time points for the bacteria were, for example, 1, 2, 3 and 4 hours when the proposed regimen soaking time was four hours. Yeast and mold were tested at an additional timepoint of 16 hours (4 times the regimen time). The suspension was mixed well by vortexing vigorously for at least 5 seconds. The 1.0 ml aliquots removed at the specified time intervals were subjected to a suitable series of decimal dilutions in validated neutralizing media. The suspensions were mixed vigorously and incubated for a suitable period of time to allow for neutralization of the microbial agent at room temperature. The viable count of organisms was determined in appropriate dilutions by preparation of triplicate plates of trypticase soy (TSA) agar for bacteria and Sabouraud dextrose agar (SDA) for mold and yeast. The bacterial recovery plates were incubated at 30 to 35° C. for two to four days. The yeast was incubated at 20 to 30° C. for two to four days and mold recovery plates were incubated at 20 to 25° C. for three to seven days. The average number of colony forming units was determined on countable plates. Countable plates refer to 30 to 300 cfu/plates for bacteria and yeast, and 8 to 80 cfu/plate for mold except when colonies are observed only for the 10^0 or 10^−1 dilution plates. The microbial reduction was then calculated at the specified time points. […] Following inoculation in a validated neutralizing broth and incubation for an appropriate period of time, the inoculum control must be between 1.0×10^5 to 1.0×10^6 cfu/ml. […]"}, "[3]": {"test_system": "Candida albicans (ATCC 10231)", "test": "Stand-alone biocidal test without organic soil", "conditions": "Candida albicans, read-out: Stand-alone biocidal result (microbial log reduction) C. albicans", "experimental": "as §1"}, "[4]": {"test_system": "Fusarium solani (ATCC 36031)", "test": "Stand-alone biocidal test without organic soil", "conditions": "Fusarium solani, read-out: Stand-alone biocidal result (microbial log reduction) F. solani", "experimental": "as §1"}},
  "note": "Where two headings read alike, the source gives them in different places.",
  "data": [
    {"compound": "CCCCCCCCCCCCCC(=O)OCCC[N+](C)(C)Cc1ccccc1", "note": "[Compound 1, N-myristoyloxypropyl-N-benzyl-N,N-dimethylammonium chloride]", "values": [
      {"measurement": "Amoebae Log Kill, Cysts", "setting": "[1]; 1 Hr.", "result": 3.30, "unit": "Log"},
      {"measurement": "Amoebae Log Kill, Cysts", "setting": "[1]; 4 Hr.", "result": 3.30, "unit": "Log"},
      {"measurement": "Stand-alone biocidal result (microbial log reduction) S. aureus", "setting": "[2]; 1 hr.", "result": 4.6},
      {"measurement": "Stand-alone biocidal result (microbial log reduction) S. aureus", "setting": "[2]; 4 hr.", "result": ">4.8"},
      {"measurement": "log reduction at 25 ppm", "setting": "[3]; ATCC10231, 1 h", "result": 3.6},
      {"measurement": "log reduction at 25 ppm", "setting": "[3]; ATCC10231, 4 h", "result": "> 4.8"},
      {"measurement": "log reduction at 25 ppm", "setting": "[4]; ATCC36031, 1 h", "result": 4},
      {"measurement": "log reduction at 25 ppm", "setting": "[4]; ATCC36031, 4 h", "result": 4.2}
    ]}
  ]
}
